Measured values as given in the CheMixHub drug solubility set.

Assay: xn = mol fraction of the nth substance listed, in the solute-free solvent

O=C1CCc2ccc(OCCCCN3CCN(c4cccc(Cl)c4Cl)CC3)cc2N1 + CCC(C)=O + CC(C)=O
solubility (g/100 g solution)
Conditions	278.15 K	283.15 K	288.15 K	293.15 K	298.15 K	303.15 K	308.15 K	313.15 K	318.15 K
x2 = 0.1	0.779	0.97	1.13	1.44	1.75	2.16	2.61	3.34	4.18
x2 = 0.2	0.882	1.07	1.25	1.61	1.94	2.32	2.83	3.58	4.41
x2 = 0.3	0.948	1.16	1.34	1.71	2.09	2.46	3.02	3.74	4.62
x2 = 0.4	1.01	1.22	1.43	1.78	2.19	2.59	3.21	3.88	4.8
x2 = 0.5	1.05	1.28	1.5	1.86	2.28	2.71	3.34	4.01	4.96
x2 = 0.6	1.09	1.34	1.57	1.93	2.36	2.82	3.46	4.13	5.1
x2 = 0.7	1.12	1.38	1.63	1.99	2.43	2.91	3.54	4.23	5.21
x2 = 0.8	1.15	1.43	1.68	2.06	2.49	2.99	3.62	4.3	5.27
x2 = 0.9	1.17	1.47	1.72	2.12	2.54	3.06	3.68	4.35	5.31

COC1=CC(=O)CC(C)C12Oc1c(Cl)c(OC)cc(OC)c1C2=O (configuration not stated) + CCC(C)=O + CC(C)O
solubility (g/100 g solution)
Conditions	283.15 K	288.15 K	293.15 K	298.15 K	303.15 K	308.15 K	313.15 K	318.15 K	323.15 K
x2 = 0.1	0.162	0.217	0.254	0.338	0.391	0.463	0.543	0.669	0.836
x2 = 0.2	0.326	0.374	0.44	0.557	0.606	0.77	0.892	1.05	1.26
x2 = 0.3	0.497	0.571	0.668	0.821	0.894	1.11	1.28	1.52	1.79
x2 = 0.4	0.684	0.779	0.9	1.11	1.23	1.44	1.68	1.93	2.25
x2 = 0.5	0.96	1.07	1.21	1.4	1.59	1.85	2.11	2.4	2.79
x2 = 0.6	1.22	1.37	1.51	1.75	1.98	2.26	2.58	2.92	3.41
x2 = 0.7	1.5	1.66	1.8	2.07	2.31	2.62	2.97	3.34	3.79
x2 = 0.8	1.7	1.87	2.04	2.37	2.6	2.94	3.29	3.75	4.16
x2 = 0.9	1.84	2.02	2.22	2.58	2.81	3.18	3.52	4	4.41
